Measured values from patent publication US4032641A, “Nicotinoyl carnitine derivatives” (Tanabe Seiyaku Co., Ltd., priority 1976, dated 1977).
Structures can show the parent of a compound that is named as a salt.

Columns and labels:
[1] = Experiment III: acute toxicity, oral, SD-strain male rats (Van der Waerden's Method); settings: rat, in vivo
Procedure: (§1) Test compounds were administered orally to ddY male mice or SD-strain male rats. Seventy-two hours after the administration, 50% lethal dose of the test compounds were estimated in accordance with Van der Waerden's Method.

[2] = Experiment III: acute toxicity, oral, ddY male mice (Van der Waerden's Method); settings: mouse, in vivo, ddY-strain male mice
Procedure: as §1

Serum-triglyceride = test: Experiment II: serum-triglyceride after oral administration to fasted rats; assay type: in vivo, rat; settings: 1 mmol/kg, rats about 170 g, mean ± standard error
Procedure: Test compounds were administered orally to groups of 5 rats (body weight: about 170 g) which fasted overnight. Blood samples were collected from the tail vain at intervals, and serum-triglyceride was determined.

Serum-cholesterol = test: Experiment I: serum-cholesterol after oral administration to fasted rats; assay type: in vivo, rat; settings: 1 mmol/kg, mean
Procedure: (§2) Test compounds are administered orally to groups of 5 rats (body weight: about 290 g) which fasted overnight. Blood samples were collected from the tail vein at intervals. Blood free fatty acid, serum-triglyceride and serum-cholesterol were determined, respectively.

Blood-free fatty acids = test: Experiment I: blood free fatty acid after oral administration to fasted rats; assay type: in vivo, rat; settings: 1 mmol/kg, mean
Procedure: as §2

Serum triglyceride = test: Experiment I: serum-triglyceride after oral administration to fasted rats; assay type: in vivo, rat; settings: 1 mmol/kg, rats about 290 g, mean
Procedure: as §2

[3] = use as hypolipidemic agent; known; cited from earlier work
[4] = system: cholesterol and triglyceride levels in plasma; settings: literature; cited from earlier work
[5] = 6 hrs after oral administration
[6] = 12 hrs after oral administration
[7] = 10 hrs after oral administration
[8] = 0 hrs after oral administration
[9] = 2 hrs after oral administration

CCOC(=O)CC(C[N+](C)(C)C)OC(=O)c1cccnc1 (stereo not shown) [B, Nicotinoyl carnitine ethyl ester chloride. H2 O]
LD50 at 72 h [1]: 6900 mg/kg | LD50 at 72 h [2]: 5900 mg/kg | Serum-triglyceride (Serum-triglyceride; [5]): 13 ± 5 mg/dL | Serum-triglyceride (Serum-triglyceride; [6]): 13 ± 4 mg/dL

CCOC(=O)CC(C[N+](C)(C)C)OC(=O)c1cccnc1 (stereo not shown) [A, Nicotinoyl carnitine ethyl ester nitrate . HNO3]
Serum-cholesterol (Serum-cholesterol; [5]): 55 mg/dL | Serum-cholesterol (Serum-cholesterol; [7]): 50 mg/dL | Blood-free fatty acids (Blood-free fatty acids; [8]): 52 μ moles/dl | Blood-free fatty acids (Blood-free fatty acids; [9]): 27 μ moles/dl | Blood-free fatty acids (Blood-free fatty acids; [5]): 29 μ moles/dl | Blood-free fatty acids (Blood-free fatty acids; [7]): 65 μ moles/dl | Serum triglyceride (Serum triglyceride; [5]): 12 mg/dL | Serum triglyceride (Serum triglyceride; [7]): 16 mg/dL

C[N+](C)(C)CC(CC(N)=O)OC(=O)c1cccnc1 (stereo not shown) [D, Nicotinoyl carnitine amide chloride . HCl]
LD50 at 72 h [1]: > 7000 mg/kg | LD50 at 72 h [2]: > 7200 mg/kg

O=C(O)c1cccnc1 [Nicotinic acid, nicotinic acid, reference compound]
side effects [3]: undesirable side effects such as facial skin flush and itching | cholesterol and triglyceride levels in plasma [4]: can be decreased | Serum-cholesterol (Serum-cholesterol; [5]): 74 mg/dL | Serum-cholesterol (Serum-cholesterol; [7]): 70 mg/dL | Serum-triglyceride (Serum-triglyceride; [5]): 28 ± 7 mg/dL | Serum-triglyceride (Serum-triglyceride; [6]): 34 ± 5 mg/dL | Blood-free fatty acids (Blood-free fatty acids; [8]): 38 μ moles/dl | Blood-free fatty acids (Blood-free fatty acids; [9]): 22 μ moles/dl | Blood-free fatty acids (Blood-free fatty acids; [5]): 60 μ moles/dl | Blood-free fatty acids (Blood-free fatty acids; [7]): 66 μ moles/dl | Serum triglyceride (Serum triglyceride; [5]): 22 mg/dL | Serum triglyceride (Serum triglyceride; [7]): 27 mg/dL

C[N+](C)(C)CC(CC(=O)OCc1ccccc1)OC(=O)c1cccnc1 (stereo not shown) [C, Nicotinoyl carnitine benzyl ester chloride]
Serum-triglyceride (Serum-triglyceride; [5]): 10 ± 1 mg/dL | Serum-triglyceride (Serum-triglyceride; [6]): 23 ± 3 mg/dL
